Measured values as given in publication PMC6445163, “Design, synthesis, and evaluation of novel 2-phenylpropionic acid derivatives as dual COX inhibitory-antibacterial agents” (Journal of Enzyme Inhibition and Medicinal Chemistry, 2017).
≈ marks a conversion by molar mass, not a printed value.

Key:
[1] = test system: Listeria monocytogenes (ATCC 1911); experiment: broth microdilution MIC (CLSI M07-A9), resazurin; type: cell-based; conditions: ATCC1911, 24 h
Protocol: (§1) Microbiological studies were performed according to following guides: CLSI reference […]-A9 broth microdilution method[49] for bacterial strains and EUCAST definitive (EDef 7.1) method[50] for Candida species. Synthesized compounds were tested for their in vitro growth inhibitory activity against Staphylococcus aureus (ATCC 25923), Enterococcus faecalis (ATCC 29212), Listeria monocytogenes (ATCC 1911), Klebsiella pneumoniae (NCTC 9633), Escherichia coli (ATCC 35218), E. coli (ATCC 25922) Candida albicans (ATCC 24433) Candida krusei (ATCC 6258) and Candida parapsilosis (ATCC 22019). Chloramphenicol and ketoconazole were used as control drugs. The cultures were obtained from the Mueller-Hinton broth (Difco) for the bacterial strains after overnight incubation at 37 °C. The yeasts were maintained in Roswell Park Memorial Institute (RPMI) after overnight incubation at 37 °C. […] Testing was carried out in Mueller-Hinton broth and RPMI at pH =7, and the two-fold serial dilutions technique was applied. The last well on the microplates containing only inoculated broth was kept as controls and the last well with no growth of microorganism was recorded to represent the minimum inhibitory concentration (MIC) expressed in μg/mL. For both the antibacterial and antifungal assays, the compounds were dissolved in DMSO. […] The completed plates were incubated for 24 h. At the end of the incubation, resazurin (20 μg/mL) was added into each well and plates were incubated for 2 h. MIC values were determined using a microplate reader at […]. Synthesized compounds (6a-6m) were evaluated for antimicrobial activity against various microorganisms such as Staphylococcus aureus (ATCC 25923), Enterococcus faecalis (ATCC 29212), Listeria monocytogenes (ATCC 1911), Klebsiella pneumoniae (NCTC 9633), Escherichia coli (ATCC 35218), E. coli (ATCC 25922)Candida albicans (ATCC 24433) Candida krusei (ATCC 6258) and Candida parapsilosis (ATCC 22019). […] Chloramphenicol and ketoconazole were used as standard drugs in the activity test. […] Besides, the compounds 6d, 6h, 6l and 6m indicated stronger antibacterial activity than the other compounds in the series.

[2] = test system: Escherichia coli (ATCC 35218); experiment: broth microdilution MIC (CLSI M07-A9), resazurin; type: cell-based; conditions: for MIC: ATCC35218, 24 h, read-out: MIC Ec-1
Protocol: as §1

[3] = test system: Klebsiella pneumoniae (NCTC 9633); experiment: broth microdilution MIC (CLSI M07-A9), resazurin; type: cell-based; conditions: 24 h
Protocol: as §1

[4] = test system: Escherichia coli (ATCC 25922); experiment: broth microdilution MIC (CLSI M07-A9), resazurin; type: cell-based; conditions: ATCC25922, 24 h, read-out: MIC Ec-2
Protocol: as §1

[5] = test system: Staphylococcus aureus (ATCC 25923); experiment: broth microdilution MIC (CLSI M07-A9), resazurin; type: cell-based; conditions: ATCC25923, 24 h
Protocol: as §1

[6] = test system: Enterococcus faecalis (ATCC 29212); experiment: broth microdilution MIC (CLSI M07-A9), resazurin; type: cell-based; conditions: ATCC29212, 24 h
Protocol: as §1

[7] = test system: Candida krusei (ATCC 6258); experiment: broth dilution MIC (EUCAST EDef 7.1), resazurin; type: cell-based; conditions: Pichia kudriavzevii, ATCC6258, 24 h
Protocol: as §1

[8] = test system: Candida parapsilosis (ATCC 22019); experiment: broth dilution MIC (EUCAST EDef 7.1), resazurin; type: cell-based; conditions: ATCC22019, 24 h
Protocol: as §1

[9] = test system: Candida albicans (ATCC 24433); experiment: broth dilution MIC (EUCAST EDef 7.1), resazurin; type: cell-based; conditions: ATCC24433, 24 h
Protocol: as §1

COX-1 = molecular target: T1, COX-1 (Ovis aries, UniProt P05979); experiment: fluorometric COX-1 inhibitor screening kit assay; type: biochemical; conditions: for SI (selectivity index): IC50 (COX-1)/IC50 (COX-2); for IC50: fluorometric kit, 25 °C; for Selectivity: isoform preferred according to SI
T1 construct: purchased Biovision K548-100
T1 sequence (P05979 25-600): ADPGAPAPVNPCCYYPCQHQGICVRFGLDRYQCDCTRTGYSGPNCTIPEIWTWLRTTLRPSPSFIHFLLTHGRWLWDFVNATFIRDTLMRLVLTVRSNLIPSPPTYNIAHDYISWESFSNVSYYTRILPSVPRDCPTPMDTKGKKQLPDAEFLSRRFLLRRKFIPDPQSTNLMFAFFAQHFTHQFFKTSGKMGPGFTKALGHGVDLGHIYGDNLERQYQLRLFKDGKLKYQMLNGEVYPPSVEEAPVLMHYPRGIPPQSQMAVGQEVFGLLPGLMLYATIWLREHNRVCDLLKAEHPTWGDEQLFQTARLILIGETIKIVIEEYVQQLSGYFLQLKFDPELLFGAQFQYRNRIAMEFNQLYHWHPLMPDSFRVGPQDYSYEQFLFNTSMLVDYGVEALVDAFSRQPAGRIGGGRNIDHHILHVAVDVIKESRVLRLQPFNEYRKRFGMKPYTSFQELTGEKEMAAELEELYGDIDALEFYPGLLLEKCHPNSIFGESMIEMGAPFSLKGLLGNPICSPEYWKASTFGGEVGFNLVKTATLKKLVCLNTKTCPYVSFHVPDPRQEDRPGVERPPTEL
Protocol: (§2) Inhibitory potency of the compounds against COX-1 and COX-2 enzymes was determined using fluorometric COX-1 and COX-2 inhibitor screening kits (Biovision, Zurich, Switzerland). Experimental protocol was followed as described in the guides of the supplier[47]^,[48]. All of the pipettings in the assay were performed by Biotek Precision robotic system (BioTek Instruments, Inc., Winooski, VT). […] Appropriate two points (T1 and T2) in the linear range of the plot were chosen, and the corresponding fluorescence values (RFU1 and RFU2) were obtained. The slope for all samples, including enzyme control (EC), by dividing the net ΔRFU (RFU2–RFU1) values by the time ΔT (T2–T1) were calculated by using following equation: % Relative inhibition=(Slope of EC-Slope of S/Slope of EC)×100
(§3) This initial in vitro assay was done with two concentrations (10^−3 and 10^−4 M) for all compounds. […] The IC50 value was calculated from the plots of enzyme activity against concentrations by applying regression analyses on GraphPad Prism Version 5 (GraphPad Software, La Jolla, CA).
(§4) Selectivity indexes (SI) were expressed as IC50 (COX-1)/IC50 (COX-2). Selectivity toward COX-2 decreases as the corresponding SI decreases while selectivity toward COX-1 isoform increases as the corresponding SI decreases.

COX-2 = molecular target: T2, COX-2 (Homo sapiens, UniProt P35354); experiment: fluorometric COX-2 inhibitor screening kit assay; type: biochemical; conditions: 25 °C
T2 construct: purchased Biovision K547-100
T2 sequence (P35354 18-604): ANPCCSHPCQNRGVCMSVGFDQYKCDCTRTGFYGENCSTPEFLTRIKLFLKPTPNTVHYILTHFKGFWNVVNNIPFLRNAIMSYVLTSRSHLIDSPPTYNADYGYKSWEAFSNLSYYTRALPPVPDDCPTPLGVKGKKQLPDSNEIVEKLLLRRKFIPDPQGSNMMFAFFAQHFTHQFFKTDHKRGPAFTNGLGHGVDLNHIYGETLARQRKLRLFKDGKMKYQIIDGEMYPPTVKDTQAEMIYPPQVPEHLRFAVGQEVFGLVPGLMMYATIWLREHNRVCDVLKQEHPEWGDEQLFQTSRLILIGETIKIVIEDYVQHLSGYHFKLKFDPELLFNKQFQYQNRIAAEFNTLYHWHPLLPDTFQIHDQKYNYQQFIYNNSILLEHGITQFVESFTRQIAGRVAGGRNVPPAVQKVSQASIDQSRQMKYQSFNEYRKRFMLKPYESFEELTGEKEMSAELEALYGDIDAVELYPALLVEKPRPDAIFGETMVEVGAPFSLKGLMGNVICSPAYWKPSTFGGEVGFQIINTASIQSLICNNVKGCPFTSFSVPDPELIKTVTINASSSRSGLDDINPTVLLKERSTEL
Protocol: as §2, §3, §4

SMILES | MIC [1] | MIC Ec-1 ([2]; 24 h) | MIC [2] | MIC Kp [3] | MIC [4] | MIC [5] | MIC [6] | MIC [7] | MIC [8] | MIC [9] | SI (selectivity index) (COX-1) | IC50 (COX-1) | Selectivity (COX-1) | IC50 (COX-2) | melting point
O=C(N[C@H](CO)[C@H](O)c1ccc([N+](=O)[O-])cc1)C(Cl)Cl [Chloramphenicol, reference compound] | 12.5 µg/mL (≈ 38.7 µM) | 6.25 µg/mL (≈ 19.3 µM) | 6.25 µg/mL (≈ 19.3 µM) | 12.5 µg/mL (≈ 38.7 µM) | 6.25 µg/mL (≈ 19.3 µM) | 6.25 µg/mL (≈ 19.3 µM) | 6.25 µg/mL (≈ 19.3 µM) | – | – | – | – | – | – | – | –
Cc1ccc(C(C)C(=O)O)cc1 (stereo not drawn) [Compound 4, 2-(4-methylphenyl) propionic acid] | 50 µg/mL (≈ 304 µM) | – | 25 µg/mL (≈ 152 µM) | 50 µg/mL (≈ 304 µM) | 50 µg/mL (≈ 304 µM) | 50 µg/mL (≈ 304 µM) | 50 µg/mL (≈ 304 µM) | 50 µg/mL (≈ 304 µM) | 50 µg/mL (≈ 304 µM) | 100 µg/mL (≈ 609 µM) | 0.59 | 38.2 µM | COX-1 | 64.3 µM | –
CC(C(=O)O)c1ccc(CSC2=NCCS2)cc1 (stereo not drawn) [Compound 6a, 2-(4-(((4,5-Dihydrothiazol-2-yl)thio)methyl)phenyl)propanoic acid] | 12.5 µg/mL (≈ 44.4 µM) | – | 6.25 µg/mL (≈ 22.2 µM) | 6.25 µg/mL (≈ 22.2 µM) | 12.5 µg/mL (≈ 44.4 µM) | 12.5 µg/mL (≈ 44.4 µM) | 12.5 µg/mL (≈ 44.4 µM) | 100 µg/mL (≈ 355 µM) | 100 µg/mL (≈ 355 µM) | 100 µg/mL (≈ 355 µM) | 0.59 | 22.2 µM | COX-1 | 37.8 µM | 154.2 to 156.3 °C
CC(C(=O)O)c1ccc(CSc2nccn2C)cc1 (stereo not drawn) [Compound 6b, 2-(4-(((1-Methyl-1H-imidazol-2-yl)thio)methyl)phenyl)propanoic acid] | 12.5 µg/mL (≈ 45.2 µM) | – | 6.25 µg/mL (≈ 22.6 µM) | 6.25 µg/mL (≈ 22.6 µM) | 12.5 µg/mL (≈ 45.2 µM) | 12.5 µg/mL (≈ 45.2 µM) | 12.5 µg/mL (≈ 45.2 µM) | 100 µg/mL (≈ 362 µM) | 50 µg/mL (≈ 181 µM) | 100 µg/mL (≈ 362 µM) | 0.60 | 28.6 µM | COX-1 | 47.4 µM | –
CC(C(=O)O)c1ccc(CSc2nc[nH]n2)cc1 (stereo not drawn) [Compound 6c, 2-(4-(((1H-1,2,4-Triazol-3-yl)thio)methyl)phenyl)propanoic acid] | 12.5 µg/mL (≈ 47.5 µM) | – | 6.25 µg/mL (≈ 23.7 µM) | 12.5 µg/mL (≈ 47.5 µM) | 12.5 µg/mL (≈ 47.5 µM) | 12.5 µg/mL (≈ 47.5 µM) | 12.5 µg/mL (≈ 47.5 µM) | 50 µg/mL (≈ 190 µM) | 50 µg/mL (≈ 190 µM) | 100 µg/mL (≈ 380 µM) | 0.53 | 19.5 µM | COX-1 | 36.7 µM | –
